The text below walks through data of ChEMBL document CHEMBL5154688, “Design, Synthesis, and Characterization of I-BET567, a Pan-Bromodomain and Extra Terminal (BET) Bromodomain Oral Candidate” (J Med Chem, 2022).

A word on the solubility: it is how much of the substance goes into solution per volume. Low values mean a poorly soluble substance, high ones a readily soluble substance. The IC50 is the concentration at which inhibition is half-maximal. What is called kinetic solubility is the concentration staying in solution when a stock, usually in DMSO, is diluted into the medium.

Series [1] is described as follows: Solubility of the compound at pH 6.5 in fast state simulated intestinal fluid incubated for 16 hrs by HPLC analysis. To be noted: fasted state simulated intestinal fluid (FaSSIF). The format is physicochemical.
The target of series [2] is T1, Bromodomain-containing protein 4 (Homo sapiens, UniProt O60885). The series is described as follows: Inhibition of BRD4 BD2 (unknown origin) incubated for 30 mins in presence of fluorescent ligand by TR-FRET method. On the technique in general: TR-FRET usually uses a lanthanide donor and a delayed reading to cut background.
Series [3] in a line: Artificial membrane permeability of the compound. The series is classed as ADME. To be noted: PAMPA; read-out: permeability. For orientation: PAMPA measures passive passage across an artificial lipid membrane.
The target of series [4] is T1, Bromodomain-containing protein 4. Put plainly: Inhibition of BRD4 BD1 (unknown origin) incubated for 30 mins in presence of fluorescent ligand by TR-FRET method.
The nature of series [5]: Solubility of the compound in saline by CLND method. The series is classed as physicochemical.
The target in another series is Cytochrome P450 3A4 (Homo sapiens, UniProt P08684). The series is described as follows: Inhibition of CYP3A4 (unknown origin). The format is ADME.
Series [6] deals with Voltage-gated inwardly rectifying potassium channel KCNH2 (Homo sapiens, UniProt Q12809). Put plainly: Inhibition of hERG. The format is toxicity. A general note: hERG is a cardiac potassium channel; its block is linked to QT prolongation.
The nature of series [7]: Intrinsic clearance in dog hepatocytes incubated upto 45 mins by LC-MS/MS analysis. The format is ADME, cell-based, Canis lupus familiaris, Hepatocyte. To be noted: 0.75 h.
The nature of series [8]: Intrinsic clearance in rat hepatocytes after 60 mins by LC-MS/MS analysis. To be noted: 1 h. The series is classed as ADME, cell-based, Hepatocyte.
For another series, the target named is C-C motif chemokine 2 (Homo sapiens, UniProt P13500). Put plainly: Inhibition of MCP-1 in LPS-stimulated human whole blood incubate for 24 hrs by immuno assay. The series is classed as tissue-based.
Series [9] in a line: Intrinsic clearance in human hepatocytes measured after 120 mins by LC-MS/MS analysis. As to conditions: 2 h. The series is classed as ADME, cell-based, Hepatocyte.

The structures appear in SMILES notation. In brackets after ≈: the same amount, converted by molar mass.

Sequence of Cytochrome P450 3A4 (P08684 whole entry): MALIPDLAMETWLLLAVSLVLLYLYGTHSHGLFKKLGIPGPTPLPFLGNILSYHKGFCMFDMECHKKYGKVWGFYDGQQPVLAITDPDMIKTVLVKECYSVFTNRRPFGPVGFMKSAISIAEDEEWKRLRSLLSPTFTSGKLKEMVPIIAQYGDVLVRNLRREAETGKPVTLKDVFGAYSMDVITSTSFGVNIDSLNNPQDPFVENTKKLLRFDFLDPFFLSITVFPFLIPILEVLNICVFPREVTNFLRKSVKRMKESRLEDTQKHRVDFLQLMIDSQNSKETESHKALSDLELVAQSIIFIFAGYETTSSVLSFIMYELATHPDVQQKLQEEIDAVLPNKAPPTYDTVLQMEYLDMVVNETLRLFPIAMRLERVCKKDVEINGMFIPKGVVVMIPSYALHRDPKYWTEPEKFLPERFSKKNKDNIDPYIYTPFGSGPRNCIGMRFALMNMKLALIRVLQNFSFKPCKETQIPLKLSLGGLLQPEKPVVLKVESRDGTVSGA
Sequence of C-C motif chemokine 2 (P13500 whole entry): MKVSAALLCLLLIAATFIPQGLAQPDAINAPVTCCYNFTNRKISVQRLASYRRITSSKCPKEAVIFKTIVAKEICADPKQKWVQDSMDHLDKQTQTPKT
Sequence of Voltage-gated inwardly rectifying potassium channel KCNH2 (Q12809 whole entry): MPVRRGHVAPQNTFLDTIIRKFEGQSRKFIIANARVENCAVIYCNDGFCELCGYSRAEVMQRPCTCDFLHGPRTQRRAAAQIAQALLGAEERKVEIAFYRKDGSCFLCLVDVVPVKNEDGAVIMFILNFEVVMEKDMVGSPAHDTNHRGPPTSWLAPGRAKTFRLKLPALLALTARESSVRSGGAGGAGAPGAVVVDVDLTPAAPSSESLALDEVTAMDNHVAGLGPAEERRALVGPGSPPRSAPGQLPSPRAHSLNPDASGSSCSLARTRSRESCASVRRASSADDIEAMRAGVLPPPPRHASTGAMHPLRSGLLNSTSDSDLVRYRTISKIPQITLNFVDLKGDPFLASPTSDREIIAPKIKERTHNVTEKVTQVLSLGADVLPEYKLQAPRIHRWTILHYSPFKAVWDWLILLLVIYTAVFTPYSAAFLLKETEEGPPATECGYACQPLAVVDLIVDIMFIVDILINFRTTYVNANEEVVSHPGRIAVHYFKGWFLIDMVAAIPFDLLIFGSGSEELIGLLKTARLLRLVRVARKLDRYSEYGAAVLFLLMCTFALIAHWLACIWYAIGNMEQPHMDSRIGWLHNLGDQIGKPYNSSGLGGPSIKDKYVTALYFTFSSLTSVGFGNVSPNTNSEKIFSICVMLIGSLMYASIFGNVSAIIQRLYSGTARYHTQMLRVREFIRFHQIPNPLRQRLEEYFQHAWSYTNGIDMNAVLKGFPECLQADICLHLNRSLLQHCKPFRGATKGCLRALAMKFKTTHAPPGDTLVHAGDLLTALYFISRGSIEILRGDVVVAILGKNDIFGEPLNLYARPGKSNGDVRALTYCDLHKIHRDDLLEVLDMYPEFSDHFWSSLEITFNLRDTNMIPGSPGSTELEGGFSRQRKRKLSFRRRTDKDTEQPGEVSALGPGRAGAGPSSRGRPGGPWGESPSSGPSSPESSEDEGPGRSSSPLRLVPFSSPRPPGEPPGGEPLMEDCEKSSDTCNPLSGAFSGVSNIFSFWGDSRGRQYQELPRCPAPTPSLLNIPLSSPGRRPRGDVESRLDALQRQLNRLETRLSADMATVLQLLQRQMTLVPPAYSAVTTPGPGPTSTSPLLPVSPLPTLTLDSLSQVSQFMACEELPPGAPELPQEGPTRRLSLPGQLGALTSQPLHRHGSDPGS

The molecule `CC(=O)N1c2ccc(C(N)=O)cc2[C@H](Nc2cccc(Cl)c2)C[C@@H]1C` registered a solubility at 16 h in series [1] of 33 µg/mL (≈ 92.2 µM). For the same molecule, the values for the IC50 in series [2] and in series [4] were 20 nM and 200 nM, respectively. Moreover, the Papp in series [3] came to 40 ×10⁻⁶ cm/s.
Taken in the same sequence, the figures for `CC(=O)N1c2ccccc2[C@H](Nc2ccc(C#N)cn2)C[C@@H]1C` were 533 µg/mL (≈ 1740 µM), 316 nM, 1000 nM and 48 ×10⁻⁶ cm/s.
The molecule `CCNC(=O)c1ccc2c(c1)[C@H](Nc1ccc(Cl)cn1)C[C@H](C)N2C(C)=O` gave a solubility at 16 h in [1] of 90 µg/mL (≈ 233 µM). The concentration for half-maximal inhibition (IC50) in series [2] is 79.4 nM; in series [4], 316 nM. Moreover, the Papp in series [3] amounted to 35 ×10⁻⁶ cm/s.
Taken in the same sequence, the figures for `CC(=O)N1c2ccc(F)cc2[C@H](Nc2ccc(C#N)cn2)C[C@@H]1C` were 558 µg/mL (≈ 1720 µM), 316 nM, 794 nM and 51 ×10⁻⁶ cm/s.
For `CCNC(=O)c1ccc2c(c1)[C@H](Nc1ccc(F)cn1)C[C@H](C)N2C(C)=O`, the solubility (kinetic) in series [5] was no less than 126 µg/mL. The half-inhibitory concentration (IC50) is 158 nM in series [2] and 794 nM in series [4]. In addition, the Papp in series [3] stood at 23 ×10⁻⁶ cm/s.
The molecule `CC(=O)N1c2ccccc2[C@H](Nc2cnc(C#N)cn2)C[C@@H]1C` showed a solubility at 16 h in series [1] of 955 µg/mL (≈ 3110 µM). The IC50 in [2] and in series [4] was 1260 nM each time. In addition, the Papp in [3] amounted to 32 ×10⁻⁶ cm/s.
In series [1], `CCNC(=O)c1ccc2c(c1)[C@H](Nc1ccc(C)cn1)C[C@H](C)N2C(C)=O` returned a solubility at 16 h of 44 µg/mL (≈ 120 µM). Moreover, the IC50 in [2] is 158 nM; in [4], 794 nM. In addition, the Papp in series [3] was determined as 25 ×10⁻⁶ cm/s.
Taken in the same sequence, the figures for `CC(=O)N1c2ccccc2[C@H](Nc2cnc(C)cn2)C[C@@H]1C` were 270 µg/mL (≈ 911 µM), 501 nM, 1000 nM and 54 ×10⁻⁶ cm/s.
In [1], `CCNC(=O)c1ccc2c(c1)[C@H](Nc1ccc(C#N)cn1)C[C@H](C)N2C(C)=O` gave a solubility at 16 h greater than 1000 µg/mL. The IC50 is greater than 39800 nM against Cytochrome P450 3A4; greater than 50100 nM in series [6]; 251 nM at C-C motif chemokine 2; 100 nM in series [2]; 200 nM in [4]. For the same molecule, the CLH in series [7] was less than 1.26 mL/min/g; in series [8], 4.3 mL/min/g; in series [9], less than 0.87 mL/min/g. Besides, the Papp in series [3] amounted to 4.6 ×10⁻⁶ cm/s.
On to `CC(=O)N1c2ccc(F)cc2[C@H](Nc2cnc(C#N)cn2)C[C@@H]1C`, for which the solubility (kinetic) in series [5] is 99 µg/mL (≈ 304 µM). The values for the half-maximal inhibitory concentration (IC50) in [2] and in [4] were 1000 nM and 1260 nM, respectively. The Papp in [3] was 30 ×10⁻⁶ cm/s.
Take `CCNC(=O)c1ccc2c(c1)[C@H](Nc1ncc(Cl)cn1)C[C@H](C)N2C(C)=O`: the concentration in solution in series [1] (solubility at 16 h) came to 82 µg/mL (≈ 211 µM). In addition, the figures for the IC50 in series [2] and in series [4] were 79.4 nM and 100 nM, respectively. Besides, in series [3], the Papp is less than 18 ×10⁻⁶ cm/s.
Taken in the same sequence, the figures for `CC(=O)N1c2ccc(C#N)cc2[C@H](Nc2cnc(C#N)cn2)C[C@@H]1C` were 60 µg/mL (≈ 181 µM), 501 nM, 501 nM and 19 ×10⁻⁶ cm/s.
As for `CCNC(=O)c1ccc2c(c1)[C@H](Nc1cnc(C#N)cn1)C[C@H](C)N2C(C)=O`, in series [5], the solubility (kinetic) is no less than 73 µg/mL. Further, the IC50 is 1000 nM in series [2] and 501 nM in [4]. For the same molecule, in [3], the Papp is 0.3 ×10⁻⁶ cm/s.
As to `CC(=O)N1c2ccc(C(N)=O)cc2[C@H](Nc2ccc(Cl)cn2)C[C@@H]1C`, in series [1], the solubility at 16 h was 884 µg/mL (≈ 2460 µM). Further, the IC50 is greater than 39800 nM against Cytochrome P450 3A4; greater than 50100 nM in series [6]; 398 nM against C-C motif chemokine 2; 79.4 nM in series [2]; 251 nM in series [4]. Also, the Papp in series [3] was 15 ×10⁻⁶ cm/s.
In turn, `CC(=O)N1c2ccc(C(N)=O)cc2[C@H](Nc2ccc(C)cn2)C[C@@H]1C` registered a kinetic solubility in series [5] of no less than 143 µg/mL. The values for the IC50 in series [2] and in series [4] were 158 nM and 794 nM, respectively. The Papp in series [3] came to 8.2 ×10⁻⁶ cm/s.
The molecule `CC(=O)N1c2ccc(C#N)cc2[C@H](Nc2ccc(C#N)cn2)C[C@@H]1C` returned a solubility at 16 h in series [1] of 279 µg/mL (≈ 842 µM). Further, the IC50 was 158 nM in [2] and 501 nM in [4]. Moreover, the Papp in [3] was 31 ×10⁻⁶ cm/s.
In series [1], `CC(=O)N1c2ccc(F)cc2[C@H](Nc2cnc(C)cn2)C[C@@H]1C` registered a solubility at 16 h greater than 1000 µg/mL. Also, the IC50 was 631 nM in series [2] and 1260 nM in series [4]. The Papp in series [3] was 52 ×10⁻⁶ cm/s.
